Results on 13 compounds are retold here after patent US20240190860A1, “8-CYCLO-SUBSTITUTED QUINAZOLINE DERIVATIVES AS LPA RECEPTOR 2 INHIBITORS” (CHIESI FARMACEUTICI S.p.A., priority 2021, published 2024).

The target in this assay is T1, human recombinant LPA2 expressed in CHO cells (Homo sapiens, UniProt Q9HBW0).
T1 construct: expressed in transfected cells; host or cells: CHO cells (CHO-hLPA2 cell line)
Put plainly: FLIPR calcium mobilization assay, LPA2 antagonism in CHO-hLPA2 cells. In kind it is cell-based. A digest of the protocol:
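CHO cells stably expressing human LPA2, loaded 30 min at 37° C with 5 μM Cal-520 AM plus 2.5 mM probenecid in HEPES buffer pH 7.4, then preincubated 30 min with antagonist (11-point series, 0.5% DMSO final). Challenged with LPA at EC80; baseline-subtracted peak FLIPR fluorescence converted to % inhibition and pIC50 by four-parameter logistic fit.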
(In general: Calcium flux is commonly read through the fluorescence of an indicator in the cells.)

[1] abbreviates: CHO-hLPA2 cells, inhibition of LPA EC80 Ca2+ response, 30 min pre-incubation, read-out: LPA2 IC50.

Where two headings read alike, the source gives them in different places. Bounds are passed on as bounds.

T1 sequence (Q9HBW0 whole entry): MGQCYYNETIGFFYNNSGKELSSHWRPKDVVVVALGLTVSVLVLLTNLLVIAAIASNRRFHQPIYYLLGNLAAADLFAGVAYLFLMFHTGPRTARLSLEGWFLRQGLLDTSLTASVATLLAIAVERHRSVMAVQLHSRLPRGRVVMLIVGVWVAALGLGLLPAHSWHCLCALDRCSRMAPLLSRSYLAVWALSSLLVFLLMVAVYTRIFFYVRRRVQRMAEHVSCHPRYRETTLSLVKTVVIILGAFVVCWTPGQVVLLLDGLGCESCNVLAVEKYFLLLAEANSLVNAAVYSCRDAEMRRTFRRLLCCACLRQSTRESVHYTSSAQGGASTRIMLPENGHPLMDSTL

Consider `C[C@@H](CN1CCN(S(=O)(=O)c2ccc3c(c2)sc(=O)n3C)CC1)Nc1ncnc2c(-c3cccnc3)cccc12` [Example 94, 3-methyl-6-({4-[(2S)-2-{[8-(pyridin-3-yl)quinazolin-4-yl]amino}propyl]piperazin-1-yl}sulfonyl)-2,3-dihydro-1,3-benzothiazol-2-one], for which the IC50 (usually the concentration needed to halve the response being measured) under setting [1] is 10 to 100 nM.

Consider `COC(=O)Nc1nc(C)c(S(=O)(=O)N2CCN(C[C@H](C)Nc3ncnc4c(-c5cc(C)ncn5)cccc34)CC2)s1` [Example 95, methyl N-[4-methyl-5-({4-[(2S)-2-{[8-(6-methylpyrimidin-4-yl)quinazolin-4-yl]amino}propyl]piperazin-1-yl}sulfonyl)-1,3-thiazol-2-yl]carbamate], for which, under setting [1], the IC50 fell in the range of 10 to 100 nM.

For `C[C@@H](CN1CCN(S(=O)(=O)c2ccc3c(c2)sc(=O)n3C)CC1)Nc1ncnc2c(-c3ccc(F)c(CN(C)C)c3)cccc12` [Example 96, 6-({4-[(2S)-2-[(8-{3-[(dimethylamino)methyl]-4-fluorophenyl}quinazolin-4-yl)amino]propyl]piperazin-1-yl}sulfonyl)-3-methyl-2,3-dihydro-1,3-benzothiazol-2-one], under setting [1], the concentration for half-maximal inhibition (IC50) is less than 10 nM.

As for `C[C@@H](CN1CCN(S(=O)(=O)c2ccc3[nH]c(=O)sc3c2)CC1)Nc1ncnc2c(-c3ccc(F)c(CN(C)C)c3)cccc12` [Example 97, 6-({4-[(2S)-2-[(8-{3-[(dimethylamino)methyl]-4-fluorophenyl}quinazolin-4-yl)amino]propyl]piperazin-1-yl}sulfonyl)-2,3-dihydro-1,3-benzothiazol-2-one], the IC50 under setting [1] is less than 10 nM.

On to `Cc1nc(C)c(-c2cccc3c(N[C@@H](C)CN4CCN(S(=O)(=O)c5ccc6[nH]c(=O)sc6c5)CC4)ncnc23)s1` [Example 98, 6-({4-[(2S)-2-{[8-(2,4-dimethyl-1,3-thiazol-5-yl)quinazolin-4-yl]amino}propyl]piperazin-1-yl}sulfonyl)-2,3-dihydro-1,3-benzothiazol-2-one], for which, under setting [1], the IC50 was less than 10 nM.

For the compound `Cc1ccc(-c2cccc3c(N[C@@H](C)CN4CCN(S(=O)(=O)c5ccc6nc(C)sc6c5)CC4)ncnc23)cn1` [Example 99, N-[(2S)-1-{4-[(2-methyl-1,3-benzothiazol-6-yl)sulfonyl]piperazin-1-yl}propan-2-yl]-8-(6-methylpyridin-3-yl)quinazolin-4-amine], the IC50 under setting [1] fell in the range of 10 to 100 nM.

As for `Cc1ccc(-c2cccc3c(N[C@@H](C)CN4CCN(S(=O)(=O)c5ccc6c(c5)sc(=O)n6C)CC4)ncnc23)cn1` [Example 100, 3-methyl-6-({4-[(2S)-2-{[8-(6-methylpyridin-3-yl)quinazolin-4-yl]amino}propyl]piperazin-1-yl}sulfonyl)-2,3-dihydro-1,3-benzothiazol-2-one], the 50% inhibitory concentration (IC50) under setting [1] was in the range of 10 to 100 nM.

As for `COC(=O)Nc1nc(C)c(S(=O)(=O)N2CCN(C[C@H](C)Nc3ncnc4c(-c5c(C)nn(CCN(C)C)c5C)cccc34)CC2)s1` [Example 101, methyl N-[5-({4-[(2S)-2-[(8-{1-[2-(dimethylamino)ethyl]-3,5-dimethyl-1H-pyrazol-4-yl}quinazolin-4-yl)amino]propyl]piperazin-1-yl}sulfonyl)-4-methyl-1,3-thiazol-2-yl]carbamate], under setting [1], the IC50 was less than 10 nM.

`COC(=O)Nc1nc(C)c(S(=O)(=O)N2CCN(C[C@H](C)Nc3ncnc4c(-c5cn(CCN(C)C)nc5C(F)(F)F)cccc34)CC2)s1` [Example 102, methyl N-[5-({4-[(2S)-2-[(8-{1-[2-(dimethylamino)ethyl]-3-(trifluoromethyl)-1H-pyrazol-4-yl}quinazolin-4-yl)amino]propyl]piperazin-1-yl}sulfonyl)-4-methyl-1,3-thiazol-2-yl]carbamate]: the IC50 under setting [1] is less than 10 nM.

On to `C[C@@H](CN1CCN(S(=O)(=O)c2ccccn2)CC1)Nc1ncnc2c(-c3cn(C)nc3C(F)(F)F)cccc12` [Example 103, 8-[1-methyl-3-(trifluoromethyl)-1H-pyrazol-4-yl]-N-[(2S)-1-[4-(pyridine-2-sulfonyl)piperazin-1-yl]propan-2-yl]quinazolin-4-amine], for which, under setting [1], the IC50 was 10 to 100 nM.

On to `C[C@@H](CN1CCN(S(=O)(=O)c2cccnc2)CC1)Nc1ncnc2c(-c3cn(C)nc3C(F)(F)F)cccc12` [Example 104, 8-[1-methyl-3-(trifluoromethyl)-1H-pyrazol-4-yl]-N-[(2S)-1-[4-(pyridine-3-sulfonyl)piperazin-1-yl]propan-2-yl]quinazolin-4-amine], for which the half-inhibitory concentration (IC50) under setting [1] lay in the range of 10 to 100 nM.

Take `Cc1nc2ccc(S(=O)(=O)N3CCN(C[C@H](C)Nc4ncnc5c(-c6ccc(F)c(CN(C)C)c6)cccc45)CC3)cc2s1` [Example 105, 8-{3-[(dimethylamino)methyl]-4-fluorophenyl}-N-[(2S)-1-{4-[(2-methyl-1,3-benzothiazol-6-yl)sulfonyl]piperazin-1-yl}propan-2-yl]quinazolin-4-amine]: under setting [1], the 50% inhibitory concentration (IC50) is less than 10 nM.

For the compound `COC(=O)Nc1nc(C)c(S(=O)(=O)N2CCN(C[C@H](C)Nc3ncnc4ncccc34)CC2)s1` [comparative Example A, Methyl (S)-(4-methyl-5-((4-(2-(pyrido[2,3-d]pyrimidin-4 ylamino)propyl)piperazin-1-yl)sulfonyl)thiazol-2-yl)carbamate, reference compound], the IC50 (comparative compound, same in vitro assay, stated inactive on receptor LPA2, read-out: IC50 on LPA2 receptor) is greater than 3000 nM.
